# PMC4556830, “The Effect of MGCD0103 on CYP450 Isoforms Activity of Rats by Cocktail Method” (BioMed Research International, 2015)
# Assays:
# CYP1A2 = molecular target: T1, CYP1A2 (Rattus norvegicus, UniProt P04799); assay: Cocktail method, phenacetin probe: effect of MGCD0103 on CYP1A2 activity; format: in vivo; settings: 7-day intragastric MGCD0103 20, 40, 80 mg/kg
# T1 construct: we investigated the effects of 7-day intragastric administration of MGCD0103 on the activity of CYP enzymes in vivo; from tissue; host or cells: living rats (in vivo)
# T1 sequence (P04799 1-513): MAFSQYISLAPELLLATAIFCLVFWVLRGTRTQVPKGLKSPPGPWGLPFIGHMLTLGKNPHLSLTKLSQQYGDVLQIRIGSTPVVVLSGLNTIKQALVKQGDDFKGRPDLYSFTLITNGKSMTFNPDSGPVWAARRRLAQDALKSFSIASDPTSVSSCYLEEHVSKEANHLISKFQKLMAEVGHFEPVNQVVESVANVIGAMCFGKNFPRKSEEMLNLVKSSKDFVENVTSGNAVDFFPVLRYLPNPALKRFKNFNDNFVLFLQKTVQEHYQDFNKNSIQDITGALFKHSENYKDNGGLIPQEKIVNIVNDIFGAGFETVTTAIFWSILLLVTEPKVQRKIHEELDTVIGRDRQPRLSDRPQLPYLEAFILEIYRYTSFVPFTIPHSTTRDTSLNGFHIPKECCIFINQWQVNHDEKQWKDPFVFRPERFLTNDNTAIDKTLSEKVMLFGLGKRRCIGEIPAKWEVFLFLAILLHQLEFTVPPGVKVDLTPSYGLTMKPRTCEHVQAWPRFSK
# Protocol: (§1) Forty rats (220 ± 20 g) were randomly divided into four different dosages of MGCD0103 groups (Low group, Medium group, High group, and control group with 10 rats in each group). MGCD0103 was dissolved in corn oil as suspension at three different concentrations (20, 40, and 80 mg/mL). Three different MGCD0103 groups (Low group, Medium group, and High group) were respectively given MGCD0103 20, 40, and 80 mg/kg one time by intragastric administration at every morning and last for 7 days. Control group were given saline by same administration method.
# (§2) Blood (0.3 mL) samples were collected into heparinized 1.5 mL polythene tubes from the tail vein at 0.0833, 0.5, 1, 2, 3, 4, 6, 8, 12, 24, and 48 h after intragastric administration of six probe drugs. 100 μL of plasma was obtained from blood sample after centrifugation at 4000 g for 10 min. In a 1.5 mL centrifuge tube, 200 μL of acetonitrile (containing 50 ng/mL IS) was added into 100 μL of collected plasma sample. After vortex-mixing for 1.0 min, the sample was centrifuged at 13000 g for 15 min. Then supernatant (2 μL) was injected into the UPLC-MS/MS system for analysis.
# (§3) Concentration of plasma probe drugs versus time was analyzed by Version 3.0 Data Analysis System (Wenzhou Medical University, China). The main pharmacokinetic parameters of the MGCD0103 group and control group were analyzed by SPSS l8.0 statistical software.
# CYP2C11 = assay: Cocktail method, tolbutamide probe: effect of MGCD0103 on CYP2C11 activity; format: in vivo, rat
# Protocol: as §1, §2, §3
# CYP3A2 = molecular target: T2, CYP3A2 (Rattus norvegicus, UniProt P05183); assay: Cocktail method, testosterone probe: effect of MGCD0103 on CYP3A2 activity; format: in vivo; settings: 7-day intragastric MGCD0103 20, 40, 80 mg/kg
# T2 construct: we investigated the effects of 7-day intragastric administration of MGCD0103 on the activity of CYP enzymes in vivo; from tissue; host or cells: living rats (in vivo)
# T2 sequence (P05183 1-504): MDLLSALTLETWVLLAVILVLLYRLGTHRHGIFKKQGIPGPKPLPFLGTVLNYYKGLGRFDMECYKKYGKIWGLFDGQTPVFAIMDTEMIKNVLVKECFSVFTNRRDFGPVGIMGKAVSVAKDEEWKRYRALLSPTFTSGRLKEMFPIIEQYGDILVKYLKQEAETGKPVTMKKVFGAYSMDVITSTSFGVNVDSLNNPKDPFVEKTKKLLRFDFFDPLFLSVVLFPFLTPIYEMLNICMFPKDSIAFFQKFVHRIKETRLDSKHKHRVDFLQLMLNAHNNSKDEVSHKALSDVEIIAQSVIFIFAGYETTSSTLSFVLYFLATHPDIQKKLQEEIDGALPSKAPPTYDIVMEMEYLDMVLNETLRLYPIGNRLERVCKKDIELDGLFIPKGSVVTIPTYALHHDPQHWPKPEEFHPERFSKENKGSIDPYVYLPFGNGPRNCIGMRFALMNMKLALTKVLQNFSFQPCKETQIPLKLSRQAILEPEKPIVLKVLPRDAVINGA
# Protocol: as §1, §2, §3
# liver = assay: Liver histopathology (HE staining) after MGCD0103; format: in vivo, rat
# Protocol: After pharmacokinetic properties analysis, rats were deeply anesthetized with 10% chloral hydrate (i.p., […]). The livers of control group and MGCD0103 treated groups were rapidly isolated and immersed in freshly prepared 4% w/v formaldehyde (0.1 M phosphate buffer, pH 7.2) for 48 h and then embedded in paraffin. Then 5 μm thick histologic sections were prepared and stained with routine HE method (hematoxylin and eosin). The morphological changes of liver were observed under light microscope.
# CYP2D4 = molecular target: T3, CYP2D4 (Rattus norvegicus, UniProt Q64680); assay: Cocktail method, metoprolol probe: effect of MGCD0103 on CYP2D4 activity; format: in vivo; settings: 7-day intragastric MGCD0103 20, 40, 80 mg/kg
# T3 construct: we investigated the effects of 7-day intragastric administration of MGCD0103 on the activity of CYP enzymes in vivo; from tissue; host or cells: living rats (in vivo)
# T3 sequence (Q64680 1-500): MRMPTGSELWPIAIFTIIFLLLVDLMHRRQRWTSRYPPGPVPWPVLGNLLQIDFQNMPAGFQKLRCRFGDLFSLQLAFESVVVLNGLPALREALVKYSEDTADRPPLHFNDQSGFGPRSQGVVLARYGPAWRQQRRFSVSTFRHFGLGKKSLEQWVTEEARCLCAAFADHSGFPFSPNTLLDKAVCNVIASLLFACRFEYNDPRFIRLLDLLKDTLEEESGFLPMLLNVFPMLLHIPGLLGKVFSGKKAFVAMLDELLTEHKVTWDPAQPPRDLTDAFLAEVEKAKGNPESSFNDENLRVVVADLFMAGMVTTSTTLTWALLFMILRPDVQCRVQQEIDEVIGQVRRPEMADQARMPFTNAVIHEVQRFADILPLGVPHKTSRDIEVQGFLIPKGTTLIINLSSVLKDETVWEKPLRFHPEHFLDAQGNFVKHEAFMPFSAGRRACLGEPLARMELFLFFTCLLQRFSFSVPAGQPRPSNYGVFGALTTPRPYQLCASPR
# Protocol: as §1, §2, §3
# CYP2B1 = molecular target: T4, CYP2B1 (Rattus norvegicus, UniProt P00176); assay: Cocktail method, bupropion probe: effect of MGCD0103 on CYP2B1 activity; format: in vivo; settings: 7-day intragastric MGCD0103 20, 40, 80 mg/kg
# T4 construct: we investigated the effects of 7-day intragastric administration of MGCD0103 on the activity of CYP enzymes in vivo; from tissue; host or cells: living rats (in vivo)
# T4 sequence (P00176 1-491): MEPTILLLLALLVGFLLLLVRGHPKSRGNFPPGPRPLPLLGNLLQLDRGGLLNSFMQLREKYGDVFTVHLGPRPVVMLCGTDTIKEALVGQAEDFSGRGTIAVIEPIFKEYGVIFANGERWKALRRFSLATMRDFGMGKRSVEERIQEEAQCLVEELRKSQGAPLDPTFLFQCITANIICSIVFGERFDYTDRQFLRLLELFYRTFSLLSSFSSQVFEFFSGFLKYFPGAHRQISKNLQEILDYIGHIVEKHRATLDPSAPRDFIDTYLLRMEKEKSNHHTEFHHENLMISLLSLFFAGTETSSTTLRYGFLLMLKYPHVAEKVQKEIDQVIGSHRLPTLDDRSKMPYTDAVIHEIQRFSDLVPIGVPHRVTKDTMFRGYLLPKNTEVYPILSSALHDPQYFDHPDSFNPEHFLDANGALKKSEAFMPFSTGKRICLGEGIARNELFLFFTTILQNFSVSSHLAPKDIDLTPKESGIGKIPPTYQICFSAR
# Protocol: as §1, §2, §3
smiles,measurement,setting,value
"Nc1ccccc1NC(=O)c1ccc(CNc2nccc(-c3cccnc3)n2)cc1 [MGCD0103, Mocetinostat]",effect on activity of CYP1A2 enzyme,CYP1A2,not able to induce or inhibit
same,effect on metabolism of tolbutamide,"CYP2C11; 7-day intragastric administration of MGCD0103, high dosage (80 mg/kg), rat",slightly induces
same,effect on activities of CYP2C11,"CYP2C11; continuous 7-day intragastric administration of MGCD0103, rats",slightly induces
same,effect on activity of CYP3A2 enzyme,CYP3A2,not able to induce or inhibit
same,hepatotoxicity (pathological changes of liver),"liver; 20, 40, 80 mg/kg i.g. 7 days, probe drugs also given",hepatotoxic and its toxicity is dose-dependent
same,morphological changes of liver,"liver; high dose group, 80 mg/kg i.g. 7 days","liver cells with steatosis and small, atrophy, hyperchromatic karyopyknosis"
same,morphological changes of liver,"liver; low dose group, 20 mg/kg i.g. 7 days",liver cells become slightly edematous
same,morphological changes of liver,"liver; middle dose group, 40 mg/kg i.g. 7 days",liver cells experienced extensive fatty changes
same,effect on activity of CYP2D4 enzyme,CYP2D4,not able to induce or inhibit
same,effect on activity of CYP2B1 enzyme,CYP2B1,not able to induce or inhibit
